{"source": "patent US20040247633A1", "about": "“Novel dermatological composition” (EBERSYTES, LLC, priority 2003, published 2004)", "origin": "cited, not measured here", "conditions": "metal chelate", "data": [{"smiles": "CC(O)C(=O)[O-].CC(O)C(=O)[O-].[Cu+2]", "note": "(stereo not shown) [Copper lacate]", "values": [{"measurement": "Affinity Constant", "result": "10^10-10^12"}]}]}
